Data published in PubChem BioAssay (NCI).
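Here, GI50 denotes the concentration required for 50% inhibition of growth. TGI: total growth inhibition.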

Tests used:
Assay in all cases: NCI tumour cell line growth inhibition, 384-well format
786-0 renal = test system: 786-0 renal
A498 renal = test system: A498 renal
A549 NSCLC = test system: A549 NSCLC
ACHN renal = test system: ACHN renal
BT-549 breast = test system: BT-549 breast
CAKI-1 renal = test system: CAKI-1 renal
CCRF-CEM leukemia = test system: CCRF-CEM leukemia
COLO 205 colon = test system: COLO 205 colon
DU-145 prostate = test system: DU-145 prostate
EKVX NSCLC = test system: EKVX NSCLC
HCC-2998 colon = test system: HCC-2998 colon
HCT-15 colon = test system: HCT-15 colon
HL-60(TB) leukemia = test system: HL-60(TB) leukemia
HOP-62 NSCLC = test system: HOP-62 NSCLC
HOP-92 NSCLC = test system: HOP-92 NSCLC
HS 578T breast = test system: HS 578T breast
HT29 colon = test system: HT29 colon
IGROV1 ovarian = test system: IGROV1 ovarian
K-562 leukemia = test system: K-562 leukemia
KM12 colon = test system: KM12 colon
LOX IMVI melanoma = test system: LOX IMVI melanoma
M14 melanoma = test system: M14 melanoma
MALME-3M melanoma = test system: MALME-3M melanoma
MCF7 breast = test system: MCF7 breast
MDA-MB-231 breast = test system: MDA-MB-231 breast
MDA-MB-435 melanoma = test system: MDA-MB-435 melanoma
MDA-MB-468 breast = test system: MDA-MB-468 breast
MOLT-4 leukemia = test system: MOLT-4 leukemia
NCI-H226 lung = test system: NCI-H226 lung
NCI-H23 lung = test system: NCI-H23 lung
NCI-H322M lung = test system: NCI-H322M lung
NCI-H460 NSCLC = test system: NCI-H460 NSCLC
NCI-H522 lung = test system: NCI-H522 lung
NCI/ADR-RES ovarian = test system: NCI/ADR-RES ovarian
OVCAR-3 ovarian = test system: OVCAR-3 ovarian
OVCAR-4 ovarian = test system: OVCAR-4 ovarian
OVCAR-5 ovarian = test system: OVCAR-5 ovarian
OVCAR-8 ovarian = test system: OVCAR-8 ovarian
PC-3 prostate = test system: PC-3 prostate
RPMI-8226 leukemia = test system: RPMI-8226 leukemia
RXF 393 renal = test system: RXF 393 renal
SF-268 CNS = test system: SF-268 CNS
SF-295 CNS = test system: SF-295 CNS
SF-539 CNS = test system: SF-539 CNS
SK-MEL-28 melanoma = test system: SK-MEL-28 melanoma
SK-MEL-5 melanoma = test system: SK-MEL-5 melanoma
SK-OV-3 ovarian = test system: SK-OV-3 ovarian
SN12C renal = test system: SN12C renal
SNB-19 CNS = test system: SNB-19 CNS
SNB-75 CNS = test system: SNB-75 CNS
SR leukemia = test system: SR leukemia
SW-620 colon = test system: SW-620 colon
T-47D breast = test system: T-47D breast
TK-10 renal = test system: TK-10 renal
UACC-257 melanoma = test system: UACC-257 melanoma
UACC-62 melanoma = test system: UACC-62 melanoma
UO-31 renal = test system: UO-31 renal

**Q.** What does the source list for `Cn1c(=O)c2c(ncn2CC(=O)Nc2ccc(-c3ccccc3)nn2)n(C)c1=O`?
**A.** GI50 ([…]-0 renal): > 100 µM; TGI (786-0 renal): > 100 µM; GI50 (A498 renal): > 100 µM; TGI (A498 renal): > 100 µM; GI50 (A549 NSCLC): > 100 µM; TGI (A549 NSCLC): > 100 µM; GI50 (ACHN renal): > 100 µM; TGI (ACHN renal): > 100 µM; GI50 (BT-549 breast): > 100 µM; TGI (BT-549 breast): > 100 µM; GI50 (CAKI-1 renal): > 100 µM; TGI (CAKI-1 renal): > 100 µM; GI50 (CCRF-CEM leukemia): 60.2 µM; TGI (CCRF-CEM leukemia): > 100 µM; GI50 (COLO 205 colon): > 100 µM; TGI (COLO 205 colon): > 100 µM; GI50 (DU-145 prostate): > 100 µM; TGI (DU-145 prostate): > 100 µM; GI50 (EKVX NSCLC): > 100 µM; TGI (EKVX NSCLC): > 100 µM; GI50 (HCC-2998 colon): > 100 µM; TGI (HCC-2998 colon): > 100 µM; GI50 (HCT-15 colon): > 100 µM; TGI (HCT-15 colon): > 100 µM; GI50 (HL-60(TB) leukemia): 6.01 µM; TGI (HL-60(TB) leukemia): > 100 µM; GI50 (HOP-62 NSCLC): > 100 µM; TGI (HOP-62 NSCLC): > 100 µM; GI50 (HOP-92 NSCLC): > 100 µM; TGI (HOP-92 NSCLC): > 100 µM; GI50 (HS 578T breast): 72.9 µM; TGI (HS 578T breast): > 100 µM; GI50 (HT29 colon): > 100 µM; TGI (HT29 colon): > 100 µM; GI50 (IGROV1 ovarian): > 100 µM; TGI (IGROV1 ovarian): > 100 µM; GI50 (K-562 leukemia): > 100 µM; TGI (K-562 leukemia): > 100 µM; GI50 (KM12 colon): > 100 µM; TGI (KM12 colon): > 100 µM; GI50 (LOX IMVI melanoma): > 100 µM; TGI (LOX IMVI melanoma): > 100 µM; GI50 (M14 melanoma): > 100 µM; TGI (M14 melanoma): > 100 µM; GI50 (MALME-3M melanoma): > 100 µM; TGI (MALME-3M melanoma): > 100 µM; GI50 (MCF7 breast): > 100 µM; TGI (MCF7 breast): > 100 µM; GI50 (MDA-MB-231 breast): 70.8 µM; TGI (MDA-MB-231 breast): > 100 µM; GI50 (MDA-MB-435 melanoma): > 100 µM; TGI (MDA-MB-435 melanoma): > 100 µM; GI50 (MDA-MB-468 breast): 15.9 µM; TGI (MDA-MB-468 breast): 96.4 µM; GI50 (MOLT-4 leukemia): > 100 µM; TGI (MOLT-4 leukemia): > 100 µM; GI50 (NCI-H226 lung): > 100 µM; TGI (NCI-H226 lung): > 100 µM; GI50 (NCI-H23 lung): > 100 µM; TGI (NCI-H23 lung): > 100 µM; GI50 (NCI-H322M lung): > 100 µM; TGI (NCI-H322M lung): > 100 µM; GI50 (NCI-H460 NSCLC): > 100 µM; TGI (NCI-H460 NSCLC): > 100 µM; GI50 (NCI-H522 lung): > 100 µM; TGI (NCI-H522 lung): > 100 µM; GI50 (NCI/ADR-RES ovarian): > 100 µM; TGI (NCI/ADR-RES ovarian): > 100 µM; GI50 (OVCAR-3 ovarian): > 100 µM; TGI (OVCAR-3 ovarian): > 100 µM; GI50 (OVCAR-4 ovarian): 25.8 µM; TGI (OVCAR-4 ovarian): > 100 µM; GI50 (OVCAR-5 ovarian): > 100 µM; TGI (OVCAR-5 ovarian): > 100 µM; GI50 (OVCAR-8 ovarian): > 100 µM; TGI (OVCAR-8 ovarian): > 100 µM; GI50 (PC-3 prostate): > 100 µM; TGI (PC-3 prostate): > 100 µM; GI50 (RPMI-8226 leukemia): > 100 µM; TGI (RPMI-8226 leukemia): > 100 µM; GI50 (RXF 393 renal): 27.1 µM; TGI (RXF 393 renal): > 100 µM; GI50 (SF-268 CNS): > 100 µM; TGI (SF-268 CNS): > 100 µM; GI50 (SF-295 CNS): > 100 µM; TGI (SF-295 CNS): > 100 µM; GI50 (SF-539 CNS): > 100 µM; TGI (SF-539 CNS): > 100 µM; GI50 (SK-MEL-28 melanoma): > 100 µM; TGI (SK-MEL-28 melanoma): > 100 µM; GI50 (SK-MEL-5 melanoma): 3.44 µM; TGI (SK-MEL-5 melanoma): > 100 µM; GI50 (SK-OV-3 ovarian): > 100 µM; TGI (SK-OV-3 ovarian): > 100 µM; GI50 (SN12C renal): > 100 µM; TGI (SN12C renal): > 100 µM; GI50 (SNB-19 CNS): > 100 µM; TGI (SNB-19 CNS): > 100 µM; GI50 (SNB-75 CNS): > 100 µM; TGI (SNB-75 CNS): > 100 µM; GI50 (SR leukemia): 21.6 µM; TGI (SR leukemia): > 100 µM; GI50 (SW-620 colon): > 100 µM; TGI (SW-620 colon): > 100 µM; GI50 (T-47D breast): 36.3 µM; TGI (T-47D breast): > 100 µM; GI50 (TK-10 renal): > 100 µM; TGI (TK-10 renal): > 100 µM; GI50 (UACC-257 melanoma): 49.8 µM; TGI (UACC-257 melanoma): > 100 µM; GI50 (UACC-62 melanoma): 74.6 µM; TGI (UACC-62 melanoma): > 100 µM; GI50 (UO-31 renal): > 100 µM; TGI (UO-31 renal): > 100 µM
